Experimental findings from patent US20230256111A1, “C[…] ADC OR AN AOC COMPRISING A VHH, AND A SAPONIN OR A LIGAND-SAPONIN CONJUGATE” (SAPREME TECHNOLOGIES B.V., priority 2020, published 2023) are described below.

Holding throughout (assay): Cell viability (MTS) assay, targeted toxin mediated cell killing
What all share (format): cell-based, human
What all share (settings): read-out: IC50, 1500 nM SO1861, toxin or toxin conjugate titrated + 1500 nM unconjugated SO1861

Test [1] has as its system CaSki cells.
The subject of test [2] is HeLa cells.
In test [3] the test system is JIMT-1 cells.

The term IC50 denotes the concentration that gives 50% inhibition. With Saporin, the half-maximal inhibitory concentration (IC50) stood at 0.015 nM in test [1], 0.03 nM in test [2] and 0.03 nM in test [3].
